Data on 25 molecules can be found in patent US20080269213A1, “8-Hydroxyquinoline compounds and methods thereof” (Wyeth, priority 2006, published 2008).

“And” between values parts separate entries of the source, which are not always exact repeats. Identical values can stand only once. Like-named read-outs stand apart in the source and are kept apart here. Some results are limits rather than exact numbers.

One assay deals with T1, Agg-1 (Homo sapiens, UniProt O75173).
T1 sequence (O75173 213-837): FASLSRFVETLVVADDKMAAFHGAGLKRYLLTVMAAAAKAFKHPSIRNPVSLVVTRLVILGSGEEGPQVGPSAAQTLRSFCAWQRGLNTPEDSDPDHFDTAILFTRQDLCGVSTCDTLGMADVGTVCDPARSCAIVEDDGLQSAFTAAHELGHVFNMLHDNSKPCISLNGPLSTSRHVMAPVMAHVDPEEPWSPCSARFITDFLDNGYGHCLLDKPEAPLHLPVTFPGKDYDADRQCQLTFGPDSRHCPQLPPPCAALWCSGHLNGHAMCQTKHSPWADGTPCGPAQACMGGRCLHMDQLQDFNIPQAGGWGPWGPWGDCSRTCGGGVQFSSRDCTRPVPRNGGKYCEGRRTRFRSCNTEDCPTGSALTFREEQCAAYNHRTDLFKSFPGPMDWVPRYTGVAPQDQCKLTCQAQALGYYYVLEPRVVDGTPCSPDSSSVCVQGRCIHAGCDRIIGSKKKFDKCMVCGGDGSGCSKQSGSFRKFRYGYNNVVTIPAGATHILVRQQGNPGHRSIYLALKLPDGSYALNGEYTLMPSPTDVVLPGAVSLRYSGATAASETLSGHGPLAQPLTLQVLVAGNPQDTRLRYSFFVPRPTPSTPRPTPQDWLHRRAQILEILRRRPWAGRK
The assay can be described thus: Agg-1 FRET assay. The settings on record: for inhibition at 7.4 µM: @ 7400 nM. The format is biochemical. The text has this:
The Agg-1/Agg-2 FRET data for N-[(8-hydroxyquinolin-2-yl)(phenyl)methyl]-2-phenoxyacetamide and 2-{[(phenoxyacetyl)amino](phenyl)methyl}quinolin-8-yl phenoxyacetate is presented in Table 1.

In assay [1] the target is T2, recombinant human Aggrecanase-2 Agg2-Phe628 (Homo sapiens, UniProt Q9UNA0).
T2 sequence (Q9UNA0 262-628 limits assumed): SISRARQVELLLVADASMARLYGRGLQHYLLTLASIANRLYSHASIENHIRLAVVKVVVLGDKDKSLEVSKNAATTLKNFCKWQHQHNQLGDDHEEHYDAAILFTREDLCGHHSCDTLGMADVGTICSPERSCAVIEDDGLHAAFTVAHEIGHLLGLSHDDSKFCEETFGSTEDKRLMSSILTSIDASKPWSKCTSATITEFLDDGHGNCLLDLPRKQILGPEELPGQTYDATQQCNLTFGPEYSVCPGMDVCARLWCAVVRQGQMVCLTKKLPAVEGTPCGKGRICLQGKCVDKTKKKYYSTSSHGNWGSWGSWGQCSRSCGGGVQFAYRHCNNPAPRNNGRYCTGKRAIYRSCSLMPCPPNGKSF
The assay can be described thus: Aggrecanase 2 in vitro enzyme assay (Agg-2 FRET, quenched fluorescent peptide substrate). More on the design: purified recombinant human Aggrecanase-2 Agg2-Phe628 (MW=41,737); This is a truncated form of full-length human aggrecanase-2; made in house; host or cells: CHO cells. The format is biochemical. The note with it: for Agg-2 FRET Median PCT INHIB: concentration not given. The procedure, abridged: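 Kinetic fluorescence (λex 340, λem 420 nm) monitored over 40 min at 30 °C after adding 25 μM final Abz/Dnp brevican-based quenched peptide. Enzyme: recombinant truncated human Agg2-Phe628 from CHO, 0.5 μg/ml final, mixed with inhibitor first; buffer HEPES pH 7.5 with NaCl, CaCl2, CHAPS, glycerol; compounds in duplicate.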

The mark [2] stands for this setting: read-out: Agg-2 FRET Median IC50.
The mark [3] stands for this setting: read-out: Agg-1 IC50 (μM) or % Inhibition.
Where [4] appears, read: read-out: Agg-2 IC50 (μM) or % Inhibition.
Setting [5] is: IC50, read-out: Agg-1 IC50 (μM) or % Inhibition.

Broadly, the IC50 is the midpoint of a concentration-inhibition curve. In the case of `O=C(COc1ccccc1)NC(c1cc2c(cc1Cl)OCO2)c1cc(Cl)c2cccnc2c1O` (stereo not shown) [N-[(6-chloro-1,3-benzodioxol-5-yl)(5-chloro-8-hydroxyquinolin-7-yl)methyl]-2-phenoxyacetamide], the figures for the IC50 (on Agg-1 (read-out: Agg1 IC50); in assay [1] (read-out: Agg2 IC50); in assay [1] (setting [2])) were > 30 µM, 1.37 µM and 1.37 µM, respectively.

With `O=C(COc1ccc(Br)cc1)NC(c1ccccc1Cl)c1cc(Cl)c2cccnc2c1O` (stereo not shown) [Example 220, 2-(4-bromophenoxy)-N-[(5-chloro-8-hydroxyquinolin-7-yl)(2-chlorophenyl)methyl]acetamide], the IC50 was 22 to 67 µM at Agg-1 (read-out: Agg1 IC50) and 2.4 µM in assay [1] (read-out: Agg2 IC50).

As to `O=C(COc1ccc(-c2ccccc2)cc1)NC(c1ccccc1)c1cc(Cl)c2cccnc2c1O` (stereo not shown) [2-(biphenyl-4-yloxy)-N-[(5-chloro-8-hydroxyquinolin-7-yl)(phenyl)methyl]acetamide], the IC50 on Agg-1 (read-out: Agg1 IC50) was 7.4 to 20 µM; in assay [1] (read-out: Agg2 IC50) it was 2 µM.

Regarding `O=C(COc1ccccc1)NC(c1cc(Cl)c2cccnc2c1O)c1cccc2cc[nH]c12` (stereo not shown) [N-[(5-chloro-8-hydroxyquinolin-7-yl)(1H-indol-7-yl)methyl]-2-phenoxyacetamide], the inhibition at 7.4 µM on Agg-1 (read-out: Agg1 %) was 48%. Moreover, the inhibition at […] in assay [1] (@ 1900 nM) was determined as 69%.

For `CNCC(=O)Nc1cccc(C(NC(=O)COc2ccccc2)c2cc(Cl)c3cccnc3c2O)c1` (stereo not shown) [Example 207, N-(3-{(5-chloro-8-hydroxyquinolin-7-yl)[(phenoxyacetyl)amino]methyl}phenyl)-N-2-methylglycinamide], the IC50 at Agg-1 (read-out: Agg1 IC50) was 22 to 67 µM; in assay [1] (read-out: Agg2 IC50), 3.5 µM.

In the case of `O=C(COc1ccccc1)NC(c1cccc([N+](=O)[O-])c1)c1cc(Cl)c2cccnc2c1O` (stereo not shown) [N-[(5-chloro-8-hydroxyquinolin-7-yl)(3-nitrophenyl)methyl]-2-phenoxyacetamide], on Agg-1 (@ 22000 nM, read-out: Agg1 %), the inhibition at 22 µM was determined as 53%. In addition, the IC50 in assay [1] (read-out: Agg2 IC50) was 1.23 µM; in assay [1] (setting [2]) it was 1.23 µM and 0.488 µM.

On to `CC(C)C(=O)NC(Cc1cc(Cl)c2cccnc2c1O)c1ccc(CN(C)C)o1` (stereo not shown), for which the inhibition at 200 µM on Agg-1 (setting [3]) came out at 56%; in assay [1] (setting [4]), 49%.

With `O=C(NC(Cc1cc(Cl)c2cccnc2c1O)c1ccc(CN2CCOCC2)cc1)c1ccc(-c2ccccc2)cc1` (stereo not shown), the inhibition at 22 µM was 59% at Agg-1 (setting [3]) and 50% in assay [1] (setting [4]).

On to `O=C(CNCc1ccc2c(c1)OCO2)NC(c1ccccc1)c1cc(Cl)c2cccnc2c1O` (stereo not shown) [Example 226, N^2-(1,3-benzodioxol-5-ylmethyl)-N-[(5-chloro-8-hydroxyquinolin-7-yl)(phenyl)methyl]glycinamide], for which the values for the IC50 (on Agg-1 (read-out: Agg1 IC50); in assay [1] (read-out: Agg2 IC50); in assay [1] (setting [2])) were > 11 µM, 2.75 µM and 2.75 µM, respectively.

As for `CS(=O)(=O)Nc1cccc(C(NC(=O)COc2ccccc2)c2cc(Cl)c3cccnc3c2OS(C)(=O)=O)c1` (stereo not shown) [Example 203, 5-chloro-7-{{3-[(methylsulfonyl)amino]phenyl}[(phenoxyacetyl)amino]methyl}quinolin-8-yl methanesulfonate], the IC50 was > 20 µM on Agg-1 (read-out: Agg1 IC50) and > 30 µM in assay [1] (read-out: Agg2 IC50). Also, the “Agg-2 FRET Median PCT INHIB” value in assay [1] is reported as 20%.

`O=C(COc1ccccc1)NC(c1cc(Cl)c2cccnc2c1O)c1cccc2[nH]ccc12` (stereo not shown) [N-[(5-chloro-8-hydroxyquinolin-7-yl)(1H-indol-4-yl)methyl]-2-phenoxyacetamide]: at Agg-1 (@ 800 nM, read-out: Agg1 %), the inhibition at 0.8 µM amounted to 41%. Moreover, the IC50 in assay [1] (read-out: Agg2 IC50) worked out at 2.1 µM; in assay [1] (setting [2]), 2.08 µM.

Take `COc1ccc(C(NC(=O)COc2ccccc2)c2cc(Cl)c3cccnc3c2O)c2ccccc12` (stereo not shown) [N-[(5-chloro-8-hydroxyquinolin-7-yl)(4-methoxy-1-naphthyl)methyl]-2-phenoxyacetamide]: the inhibition at 22 µM on Agg-1 (@ 22000 nM, read-out: Agg1 %) amounted to 62%. In addition, in assay [1] (read-out: Agg2 IC50), the IC50 is 0.8 µM.

For the molecule `O=C(COc1ccccc1)NC(c1cc2n(n1)CCC2)c1cc(Cl)c2cccnc2c1O` (stereo not shown) [Example 179, N-[(5-chloro-8-hydroxyquinolin-7-yl)(5,6-dihydro-4H-pyrrolo[1,2-b]pyrazol-2-yl)methyl]-2-phenoxyacetamide], the concentration for half-maximal inhibition (IC50) is > 20 µM on Agg-1 (read-out: Agg1 IC50) and ~2.5 µM in assay [1] (read-out: Agg2 IC50).

As to `O=C(NC(Cc1cc(Cl)c2cccnc2c1O)c1cccc(CN2CCCC2)c1)c1ccc(-c2ccccc2)cc1` (stereo not shown) [drawing 58], the IC50 on Agg-1 (setting [5]) amounted to 5.9 µM; in assay [1] (IC50, read-out: Agg-2 IC50 (μM) or % Inhibition), 3.4 µM.

With `CN(C)CC(=O)Nc1cccc(C(NC(=O)COc2ccccc2)c2cc(Cl)c3cccnc3c2O)c1` (stereo not shown) [Example 206, N-(3-{(5-chloro-8-hydroxyquinolin-7-yl)[(phenoxyacetyl)amino]methyl}phenyl)-N2,N2-dimethylglycinamide], the IC50 was 22 to 67 µM at Agg-1 (read-out: Agg1 IC50) and 2.9 µM in assay [1] (read-out: Agg2 IC50).

Consider `O=C(COc1ccccc1)NC(Cc1ccc2cccnc2c1O)c1ccccc1` (stereo not shown), for which the IC50 on Agg-1 (setting [5]) amounted to 2.1 µM. Moreover, the inhibition at 100 µM in assay [1] (setting [4]) worked out at 59%.

With `O=C(CNCc1cccnc1)NC(c1ccccc1)c1cc(Cl)c2cccnc2c1O` (stereo not shown) [Example 228, N-[(5-chloro-8-hydroxyquinolin-7-yl)(phenyl)methyl]-N2-(pyridin-3-ylmethyl)glycinamide], the IC50 was > 67 µM on Agg-1 (read-out: Agg1 IC50) and > 11 µM in assay [1] (read-out: Agg2 IC50). The “Agg-2 FRET Median PCT INHIB” value in assay [1] came to 32%.

On to `O=C(COc1ccccc1)NC(c1cccc2c1OCO2)c1cc(Cl)c2cccnc2c1O` (stereo not shown) [N-[1,3-benzodioxol-4-yl(5-chloro-8-hydroxyquinolin-7-yl)methyl]-2-phenoxyacetamide], for which, at Agg-1 (read-out: Agg1 %), the inhibition at 7.4 µM is 54%. For the same molecule, in assay [1] (read-out: Agg2 IC50), the IC50 was found to be 1.4 µM.

Consider `Cc1ccc(-c2cccc(C(Cc3cc(Cl)c4cccnc4c3O)NC(=O)COc3ccccc3)c2)s1` (stereo not shown), for which the inhibition at 66.7 µM at Agg-1 (% inhibition @ 66.7 μM, read-out: Agg-1 IC50 (μM) or % Inhibition) is 42%. In addition, the inhibition at 22 µM in assay [1] (setting [4]) was determined as 58%.

As for `O=C(COc1ccccc1)NC(c1cn2c(n1)COCC2)c1cc(Cl)c2cccnc2c1O` (stereo not shown) [Example 178, N-[(5-chloro-8-hydroxyquinolin-7-yl)(5,6-dihydro-8H-imidazo[2,1-c][1,4]oxazin-2-yl)methyl]-2-phenoxyacetamide], the IC50 is > 20 µM at Agg-1 (read-out: Agg1 IC50) and 6.2 µM in assay [1] (read-out: Agg2 IC50).

As to `O=C(CNCc1cccc2ccccc12)NC(c1ccccc1)c1cc(Br)c2cccnc2c1O` (stereo not shown) [Example 222, N-[(5-bromo-8-hydroxyquinolin-7-yl)(phenyl)methyl]-N2-(1-naphthylmethyl)glycinamide], the values for the IC50 (on Agg-1 (read-out: Agg1 IC50); in assay [1] (read-out: Agg2 IC50)) were 7.4 to 20 µM and 1.2 to 3.7 µM, respectively.

On to `COc1ccc(Oc2cccc(C(NC(=O)COc3ccccc3)c3cc(Cl)c4cccnc4c3O)c2)cc1` (stereo not shown) [Example 128, N-{(5-chloro-8-hydroxyquinolin-7-yl)[3-(4-methoxyphenoxy)phenyl]methyl}-2-phenoxyacetamide], for which the inhibition at 7.4 µM at Agg-1 (read-out: Agg1 %) was 57%. Also, the IC50 in assay [1] (read-out: Agg2 IC50) was 1.1 µM.

`Cc1ccsc1C(NC(=O)Cc1ccccc1)c1cc(Cl)c2cccnc2c1O` (stereo not shown) [N-[(5-chloro-8-hydroxyquinolin-7-yl)(3-methyl-2-thienyl)methyl]-2-phenylacetamide]: at Agg-1 (@ 20000 nM, read-out: Agg1 %), the inhibition at 20 µM came out at 52%. The IC50 in assay [1] (read-out: Agg2 IC50) and in assay [1] (setting [2]) was 2.54 µM throughout.

With `O=C(CCl)NC(c1ccccc1)c1cc(Br)c2cccnc2c1O` (stereo not shown) [N-[(5-bromo-8-hydroxyquinolin-7-yl)(phenyl)methyl]-2-chloroacetamide], the IC50 was 22 to 67 µM at Agg-1 (read-out: Agg1 IC50) and 5.4 µM in assay [1] (read-out: Agg2 IC50).

Regarding `O=C(Cc1ccccc1)NC(c1ccccc1)c1cc(Cl)c2cccnc2c1O` (stereo not shown) [N-[(5-chloro-8-hydroxyquinolin-7-yl)(phenyl)methyl]-2-phenylacetamide], at Agg-1 (@ 1200 nM, read-out: Agg1 %), the inhibition at […] worked out at 20%. The IC50 in assay [1] (read-out: Agg2 IC50) and in assay [1] (setting [2]) was 2.53 µM each time.
